Key:
[1] = target: T1, Corticotropin-releasing factor receptor 1 (Rattus norvegicus, UniProt P35353); experiment: Antagonist activity at rat CFR1R; assay type: functional
T1 sequence (P35353 whole entry): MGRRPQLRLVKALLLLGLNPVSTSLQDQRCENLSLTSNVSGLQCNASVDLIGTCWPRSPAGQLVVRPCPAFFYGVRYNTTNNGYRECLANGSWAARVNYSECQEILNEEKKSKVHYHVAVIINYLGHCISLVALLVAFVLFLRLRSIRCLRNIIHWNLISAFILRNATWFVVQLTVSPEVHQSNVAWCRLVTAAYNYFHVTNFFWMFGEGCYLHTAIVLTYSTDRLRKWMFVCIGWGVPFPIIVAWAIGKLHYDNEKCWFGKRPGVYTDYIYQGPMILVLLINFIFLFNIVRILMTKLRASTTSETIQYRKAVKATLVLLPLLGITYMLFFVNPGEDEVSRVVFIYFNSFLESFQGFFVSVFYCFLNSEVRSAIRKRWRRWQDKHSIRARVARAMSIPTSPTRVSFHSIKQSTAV

[2] = Fraction unbound in rat plasma; assay type: ADME, cell-free
[3] = Half life in rat at 0.5 mg/kg, iv; assay type: ADME, organism-based; design: dose 0.5 mg/kg, route intravenous; settings: in vivo
[4] = Volume of distribution at steady state in rat at 0.5 mg/kg, iv and 1.5 mg/kg, po; assay type: ADME, organism-based; settings: in vivo, read-out: Vdss
[5] = system: Rattus norvegicus; experiment: AUC in rat at 1.5 mg/kg, po; assay type: ADME, organism-based, Plasma; design: dose 1.5 mg/kg, route oral; settings: in vivo
[6] = Clearance in rat at 0.5 mg/kg, iv and 1.5 mg/kg, po; assay type: ADME, organism-based; settings: in vivo

SMILES | IC50 [1] | fraction unbound [2] | further results
CCCC(C)n1c(=O)c(C)nc2c(-c3ccc(Cl)cc3Cl)ccnc21 (stereo not given) | 62 nM | – | –
CC[C@@H](COC)n1c(=O)c(C)nc2c(-c3ccc(Cl)cc3Cl)ccnc21 | 74 nM | – | –
CCC(C1CC1)n1c(=O)c(C)nc2c(-c3cc(Cl)c(OC(F)F)cc3C)ncnc21 (stereo not given) | 38 nM | 0.004 | –
Cc1nc2c(-c3ccc(Cl)cc3Cl)ccnc2n(C(C)C(C)C)c1=O (stereo not given) | 380 nM | – | –
CC[C@H](COC)n1c(=O)c(C)nc2c(-c3ccc(Cl)cc3Cl)nccc21 | 150 nM | – | –
CCC(C1CC1)n1c(=O)c(C)nc2c(-c3cc(F)c(OC)cc3F)ccnc21 (racemic) | 52 nM | – | –
CC[C@H](C1CC1)n1c(=O)c(C)nc2c(-c3cc(F)c(OC)cc3C)ccnc21 | 9.4 nM | – | –
Cc1nc2c(-c3ccc(Cl)cc3Cl)ccnc2n(CC(C)C)c1=O | 3500 nM | – | –
CCC(C1CC1)n1c(=O)c(C)nc2c(-c3cc(C)c(C)c(C)c3C)ccnc21 (racemic) | 340 nM | – | –
CC[C@H](C1CC1)n1c(=O)c(C)nc2c(-c3cc(C)c(OC)nc3C)ccnc21 | 15 nM | – | –
COc1ccc(-c2ncnc3c2nc(C)c(=O)n3C(C2CC2)C2CC2)c(C)c1 | 37 nM | 0.014 | –
CCC(COC)n1c(=O)c(C)nc2c(-c3cc(Cl)c(OC)cc3C)ccnc21 (stereo not given) | – | – | half-life [3]: 5.8 h; Vd [4]: 1.8 L/kg; AUC [5]: 8.5 µM·h; clearance [6]: 9.5 mL/min/kg
CCC(COC)n1c(=O)c(C)nc2c(-c3cc(F)c(OC)cc3Cl)ncnc21 (stereo not given) | 16 nM | 0.014 | –
CC[C@H](C1CC1)n1c(=O)c(C)nc2c(-c3ccc(OC)cc3C)ccnc21 | 11 nM | – | –
CCC(C1CC1)n1c(=O)c(C)nc2c(-c3cc(Cl)c(OC(F)F)cc3C)ccnc21 (racemic) | 9.7 nM | 0.003 | –
CC[C@@H](C1CC1)n1c(=O)c(C)nc2c(-c3ccc(Cl)cc3Cl)ncnc21 | 24 nM | 0.004 | –
CCC(C1CC1)n1c(=O)c(C)nc2c(-c3cc(C)c(OC(C)C)cc3Cl)ccnc21 (racemic) | 15 nM | – | –
CC[C@H](COC)n1c(=O)c(C)nc2c(-c3ccc(Cl)cc3Cl)ncnc21 | 97 nM | 0.022 | –
CC[C@H](C1CC1)n1c(=O)c(C)nc2c(-c3cc(C)c(OC)cc3C)ccnc21 | 130 nM | – | –
COCC(C)n1c(=O)c(C)nc2c(-c3ccc(Cl)cc3Cl)ccnc21 (stereo not given) | 63 nM | – | –
CCC(C1CC1)n1c(=O)c(C)nc2c(-c3ccc(C)cc3C)ccnc21 (racemic) | 8.8 nM | – | –
CC[C@@H](C1CC1)n1c(=O)c(C)nc2c(-c3ccc(Cl)cc3Cl)nccc21 | 55 nM | – | –
CC[C@H](C1CC1)n1c(=O)c(C)nc2c(-c3ccc(OC)nc3C)ccnc21 | 76 nM | – | –
CC[C@@H](C1CC1)n1c(=O)c(C)nc2c(-c3ccc(C(F)(F)F)cc3Cl)ccnc21 | 21 nM | – | –

More lines, in order of falling IC50 [1], values ahead:

IC50 [1] | fraction unbound [2] | SMILES | further results
8.2 nM | – | CC[C@H](C1CC1)n1c(=O)c(C)nc2c(-c3ccc(Cl)cc3Cl)ccnc21 | –
7.5 nM | 0.028 | COCC(C1CC1)n1c(=O)c(C)nc2c(-c3cc(F)c(OC)cc3Cl)ncnc21 (stereo not given) | half-life [3]: 2 h; Vd [4]: 2.05 L/kg; AUC [5]: 0.3 µM·h; clearance [6]: 33.7 mL/min/kg
7.4 nM | 0.002 | CC[C@@H](C1CC1)n1c(=O)c(C)nc2c(-c3ccc(Cl)cc3Cl)ccnc21 | –
7.3 nM | – | CC[C@@H](C1CC1)n1c(=O)c(C)nc2c(-c3ccc(OC(F)F)cc3Cl)ccnc21 | –
5.2 nM | – | CCC(C1CC1)n1c(=O)c(C)nc2c(-c3cc(C)c(C)cc3C)ccnc21 (racemic) | –
4.8 nM | – | CCC(C1CC1)n1c(=O)c(C)nc2c(-c3cc(C#N)c(C)cc3Cl)ccnc21 (stereo not given) | –
4.5 nM | – | CC[C@H](C1CC1)n1c(=O)c(C)nc2c(-c3cc(Cl)c(OC)cc3C)ccnc21 | –
4.5 nM | – | CC[C@H](C1CC1)n1c(=O)c(C)nc2c(-c3ccc(OC)cc3Cl)ccnc21 | –
4.3 nM | – | CCCC(C1CC1)n1c(=O)c(C)nc2c(-c3ccc(Cl)cc3Cl)ccnc21 (stereo not given) | –
4 nM | – | CC[C@@H](C1CC1)n1c(=O)c(C)nc2c(-c3ccc(OC)cc3Cl)ccnc21 | –
4 nM | 0.004 | CC[C@H](COC)n1c(=O)c(C)nc2c(-c3ccc(Cl)cc3Cl)ccnc21 | –
3.4 nM | – | CCC(C1CC1)n1c(=O)c(C)nc2c(-c3cc(Cl)c(OC)cc3OC)ccnc21 (racemic) | –
3 nM | 0.03 | COc1ccc(-c2ccnc3c2nc(C)c(=O)n3C(C2CC2)C2CC2)c(C)c1 | –
2.1 nM | 0.03 | CCC(COC)n1c(=O)c(C)nc2c(-c3cc(F)c(OC)cc3Cl)ccnc21 (stereo not given) | –
2 nM | – | CCOc1cc(Cl)c(-c2ccnc3c2nc(C)c(=O)n3C(CC)C2CC2)cc1C (racemic) | –
1.7 nM | – | CC[C@H](C1CC1)n1c(=O)c(C)nc2c(-c3cc(F)c(OC)cc3Cl)ccnc21 | –
1.5 nM | < 0.002 | COCC(C1CC1)n1c(=O)c(C)nc2c(-c3cc(F)c(OC)cc3Cl)ccnc21 (stereo not given) | –
1.1 nM | – | CCC(C1CC1)n1c(=O)c(C)nc2c(-c3cc(C)c(Cl)cc3OC)ccnc21 (racemic) | –
0.82 nM | < 0.002 | CCC(C1CC1)n1c(=O)c(C)nc2c(-c3cc(F)c(N(C)C)cc3Cl)ccnc21 (racemic) | –
0.68 nM | < 0.002 | CCC(C1CC1)n1c(=O)c(C)nc2c(-c3cc(C)c(OC)cc3Cl)ccnc21 (racemic) | –

From ChEMBL document CHEMBL2057151, “Synthesis and structure-activity relationships of pyrido[3,2-b]pyrazin-3(4H)-ones and pteridin-7(8H)-ones as corticotropin-releasing factor-1 receptor antagonists” (Bioorg Med Chem Lett, 2012)
